Source: article PMC12298629, “New Derivatives of Caracasine Acid with Anti-Leukemic Activity and Limited Effectiveness in Spheroid Cultures” (Pharmaceuticals, 2025)

Tests used:
caspase 3 = test: Caspase 3 activity in lysed HCT116 cells from 2D and spheroids; assay type: cell-based, human; conditions: 12 h; for Caspase 3 activity, 2D culture: HCT116 parental, 25 µM; for Caspase 3 activity, spheroid culture: HCT116 parental spheroids, 25 µM (cisplatin 15 μM)
Protocol: The assay was designed to evaluate the impact of various compounds on caspase activity using a standardized quantity of cell protein lysates after 12 h of incubation. The parental line HCT116 served as the basis for these experiments. Three distinct caspases were examined employing the fluorescence assay kits from Calbiochem (San Diego, CA, USA), specifically a fluorometric caspase-8 assay kit and a fluorimetric caspase-3 assay kit. Additionally, the fluorometric kit from Abcam was utilized to assess caspase-9 activity. Due to the variations in protocols for each caspase, separate plates were prepared for each assay, encompassing both two-dimensional (2D) cell cultures and spheroids. The compound concentrations were established at 25 µM, and assays were conducted in quintuplicate following a 12-h incubation period. The cells were harvested from the plates using the standard trypsin-EDTA solution (Merck Sigma Aldrich, Saint Louis, MO, USA), washed, and counted before lysis, as described in each kit. Cell processing adhered to the guidelines provided by the respective companies, and protein concentration was calculated and standardized using the standard BCA assay. Fluorescent readings were captured using the Enspire apparatus (Perkin-Elmer, MA, USA). Positive controls utilized included staurosporine at a concentration of 5 μM and cisplatin at 15 μM. The kits provided their own standards; however, to normalize all the readings between cultures, types, and treatments, the results were expressed as a percentage relative to the positive control, staurosporine, in 2D culture. […] A total of three separate assays were conducted for each caspase.

MRC-5 LD = test: Cytotoxic MTS assay, MRC-5 LD fibroblasts (doxorubicin-resistant); assay type: cell-based; conditions: MRC5, doxorubicin-resistant human fibroblasts, 72 h, median of five assays
From the text: (§1) The cancer cell lines used in the cytotoxic assays were acquired from the American Tissue Culture Collection (ATCC) (Manassas, VA, USA) and maintained as described previously. The MRC-5 and BJ human fibroblasts were used as non-tumoral control cells. The (MRC-5 LD and BJ LD) are also human fibroblast cell lines resistant to doxorubicin. […] The Raji and Ramos cell lines correspond to B-cell leukemia. Other cells, such as U2OS, represent a child osteosarcoma, while HCT116 is a colorectal tumor cell line. (HCT116p53^−/−, Horizon Discovery Ltd., Cambridge, UK) is a similar cell line with its p53 gene knocked down, serving as a model of human cancer frequently associated with a poor prognosis. The cells were maintained in Nunc/corning 80 cm^2 plastic tissue culture flasks and cultured in a cell culture medium according to ATCC or Horizon recommendations (McCoy, DMEM/RPMI 1640 with 5 g/L glucose, 2 mM glutamine, 100 U/mL penicillin, […] streptomycin, 10% fetal calf serum, and NaHCO3). The compounds were freshly dissolved in DMSO. The final concentration of DMSO was 0.01% in the cell culture.
(§2) The in vitro cytotoxicity of compounds (1–7) was assessed using the standard 3-(4,5-dimethyl-thiazol-2yl)-5-(3-carboxymethoxyphenyl)-2-(sulfophenyl)-2H-tetrazolium (MTS). The assay was performed at the Institute of Molecular and Translational Medicine using a robotic platform (High-ResBiosolutions, Beverly, MA, USA). Cell suspensions were prepared and diluted according to the specific cell type and the expected target cell density (25,000–35,000 cells/mL, based on cell growth characteristics). An automatic pipettor (30 μL) was used to add cells into 384-well microtiter plates. All tested compounds were dissolved in 100% DMSO, and four-fold dilutions of the intended test concentrations were added in 0.15 μL aliquots at time zero to the microtiter plate wells by the echo acoustic non-contact liquid handler Echo550 (Labcyte, San Jose, CA, USA). The assays were accomplished in technical duplicates and at least three biological replicates. The cells were incubated with the tested compound for 72 h at 37 °C in a 5% CO2 atmosphere with 100% humidity. At the end of the incubation period, cells were assayed using the MTS test. Aliquots (5 μL) of the MTS stock solution were pipetted into each well and incubated for 1–4 h. After this incubation period, the optical density (OD) was measured at 490 nm using an Envision reader (PerkinElmer, Waltham, MA, USA). Tumor cell survival (TCS) was calculated using the following equation: TCS = (OD drug-exposed well/mean OD control wells) × 100%. The IC50 value, representing the concentration of the compound lethal to 50% of the tumor cells, was calculated from the corresponding dose-response curves using Dotmatics software (Updated version 2022, London, UK). After three days of incubation on the cancer cell lines and normal fibroblasts, the […] (IC50) were obtained. Five assays were performed for each cell line. The standard error of the assays was lower than 10%, as assessed by the triplicate assays.

BJ = test: Cytotoxic MTS assay, BJ fibroblasts; assay type: cell-based; conditions: BJ, human fibroblasts, 72 h, median of five assays
From the text: as §1, §2

HCT116KO53 spheroids = test: Spheroid viability assay (CellTiter-Glo 3D), HCT116 p53 KO spheroids; assay type: cell-based; conditions: HCT-116, human tumors spheroids, 72 h, 100 pM to 50 μM
Protocol: Spheroid culture aims to analyze the drug’s effect on complex structures resembling solid tumors. The spheroids were prepared using the specific nonadherent plates for spheroid formation (Nunc Sphera, Thermo Fisher, Waltham, MA, USA) according to the simple protocol outlined by the manufacturer. The cell lines HCT116 parental, HCT116KOTp53, A549, and U2OS were cultured at a density of 2500 cells per well using medium containing 10% fetal calf serum and antibiotics: McCoy’s 5A medium for HCT116, F-12K (Kaighn’s Modified) for A549, and Dulbecco’s Modified Eagle Medium (DMEM). The cells were grown in culture for 48 h as recommended by the manufacturer and as described by Das et al. and Muñoz-Garcia et al..
The cell viability of the treated spheroids was assessed using the kit CellTiter-Glo 3D (Promega Corporation, Madison, WI, USA). The kit is designed to measure ATP as an indicator of viability, generating a luminescent readout that is more sensitive than colorimetric or fluorescence-based methods. The spheroids were cultivated with compounds at concentrations ranging from 100 pM to 50 μM in triplicate for 72 h, and the luminescence was measured using the Enspire apparatus (PerkinElmer). A standard curve was performed for each analysis as recommended by the manufacturer.

leukemic cells = test: Effect on the cell cycle; assay type: cell-based, human; conditions: comparable concentrations to caracasine acid
normal human leukocytes = system: normal human leukocytes; design: method as in PMID 31449809, PMID 35430982; conditions: 0.1 nM to 50 μM in 0.01% DMSO; cited from earlier work

IC50 (HCT116KO53 spheroids) | Compound | Caspase 3 activity, 2D culture (caspase 3) | IC50 (MRC-5 LD) | IC50 (BJ) | Effect on the cell cycle (leukemic cells) | Caspase 3 activity, spheroid culture (caspase 3) | Effect on primary leukocytes (normal human leukocytes)
> 50 µM | C=C(C)C1CCC23CC(CCC2C1(C)CCC(=O)O)C(C)C3=O (single isomer, unassigned; ent-3) [Compound 5, Ent-3,4-Seco-15-Oxo-Kaur-4(19)-en-3-Oic Acid] | did not induce caspase activity | > 50 µM | > 50 µM | no effect |  | 
> 50 µM | C=C(C)C1CCC23CC(CCC2C1(C)CCC(=O)OC(C)=O)C(C)C3=O (single isomer, unassigned; ent-3) [Compound 6, Ent-3,4-Seco-15-Oxo-Kaur-4(19)-en-Acetic Anhydride] | did not induce caspase activity | > 50 µM | > 50 µM | no effect |  | 
> 50 µM | C=C1C(=O)C23CCC(C(=C)C)C(C)(CCC(=O)OC)C2CCC1C3 (stereo not drawn) [Compound 2, Caracasine] | significant changes | 6.36 µM | 7.28 µM |  | absence of caspase activity | no significant effect
> 50 µM | C=C1C(=O)C23CCC(C(=C)C)C(C)(CCC(=O)OC(C)=O)C2CCC1C3 (stereo not drawn) [Compound 7, Caracasine-Acetic Anhydride] | significant changes | 5.53 µM | 7.68 µM |  | absence of caspase activity | 
